From US11273146B2, “Benzofuran derivatives and their use as bromodomain inhibitors” (GLAXOSMITHKLINE INTELLECTUAL PROPERTY (NO. 2) LIMITED, priority 2017, dated 2022)

molecular target: T1, BRD4 BD2 (Homo sapiens, UniProt O60885, Y97A); assay: TR-FRET competition assay, BRD4 BD2; assay type: binding; settings: single mutant tandem BRD4, read-out: pIC50 in the BRD4 BD2 assay (converted)
T1 construct: BRD4 (1-477) (Y97A) and (Y390A); made in house; host or cells: E. coli (pET15b vector)
Procedure: Bromodomain binding was assessed utilising a time resolved fluorescent resonance energy transfer (TR-FRET) competition assay. To enable this approach a known, high affinity, pan-BET interacting small molecule was labelled with Alexa Fluor® 647, which is a far-red-fluorescent dye (Reference Compound X). Reference Compound X acts as a reporter of bromodomain binding and is the acceptor fluorophore component of the TR-FRET pair. Europium chelate, conjugated to an anti-6*His antibody, was utilised as the donor fluorophore in the TR-FRET pair. […] A TR-FRET signal is generated when the donor and acceptor fluorophores are in close proximity, between 20-80 Å, which is enabled in this assay by binding of Reference Compound X to the bromodomain protein.
If the acceptor fluorophore is in close proximity then energy transfer can occur, which leads to emission of Alexa Fluor® 647 at λ665 nm. In the presence of competitor compound, Reference Compound X can be displaced from binding to the bromodomain. If displacement occurs, the acceptor fluorophore is no longer in proximity to the donor fluorophore, which prevents fluorescent energy transfer and, subsequently, a loss of Alexa Fluor® 647 emission at λ665 nm.
The competition of the compounds of formula (I) with Reference Compound X for binding to the BET family (BRD2, BRD3, BRD4 and BRDT) was assessed using protein truncates spanning both bromodomain 1 (BD1) and bromodomain 2 (BD2). In order to monitor differential binding to either BD1 or BD2, single residue mutations of key tyrosines to alanine were made in the acetyl lysine binding pockets. To validate this approach, a double residue mutant tandem domain protein was produced for each of the BET family members. Utilising a Fluorescence Polarisation approach, binding affinities for each of the single and double mutants for Reference Compound X were determined. […] Final purification was completed by Superdex 200 prep grade size exclusion column. Purified protein was stored at −80° C. in 20 mM HEPES pH 7.5 and 100 mM NaCl.
Protocol for Bromodomain BRD2, 3, 4 and T, BD1+BD2 mutant TR-FRET competition assays: All assay components were dissolved in an assay buffer composing of 50 mM HEPES pH7.4, 50 mM NaCl, 5% Glycerol, 1 mM DTT and 1 mM CHAPS. Reference Compound X was diluted, in assay buffer containing 20 nM single mutant, tandem bromodomain protein, to a concentration equivalent to 2*Kd for this bromodomain. The solution containing bromodomain and Reference Compound X was added to dose response dilutions of test compound or DMSO vehicle (a maximum of 0.5% DMSO is used in this assay) in Greiner 384 well black low volume microtitre plates and subsequently incubated for 30 minutes at room temperature. An equal volume of 3 nM of anti-6*His Europium chelate was added to all wells, followed by a further 30 minute incubation at room temperature. TR-FRET was detected using a Perkin Elmer Multimode plate reader, by exciting the donor fluorophore at λ337 nm and subsequently, after a delay of 50 μsecs, measuring emission of the donor and acceptor fluorophores at λ615 nm and λ665 nm, respectively. In order to control these assays, 16 replicates each of uninhibited (DMSO vehicle) and inhibited (10*IC50 concentrations of Example 11 of WO 2011/054846A1) TR-FRET assays were included on every microtitre plate.

| IC50 [µM] | SMILES |
| --- | --- |
| 1 to 100 | CCNC(=O)c1cc(C(=O)NC)c2c(c1)C(c1cccc(C(=O)OCC)c1)CO2 (single isomer, unassigned) [Example 113, (R*)-ethyl 3-(5-(ethylcarbamoyl)-7-(methylcarbamoyl)-2,3-dihydrobenzofuran-3-yl)benzoate] |
| 1 to 100 | CNC(=O)c1cc(C(=O)NCCc2cnn(C)c2)cc2c1OCC2c1ccc(F)cc1 (single isomer, unassigned) [Example 119, (R*)-3-(4-fluorophenyl)-N^7-methyl-N^5-(2-(1-methyl-1H-pyrazol-4-yl)ethyl)-2,3-dihydrobenzofuran-5,7-dicarboxamide] |
| 1 to 100 | CNC(=O)c1cc(C(=O)NC2CC2)cc2c1OCC2C1CCOCC1 (single isomer, unassigned) [Example 120, (R*)-N^5-cyclopropyl-N^7-methyl-3-(tetrahydro-2H-pyran-4-yl)-2,3-dihydrobenzofuran-5,7-dicarboxamide] |
| 1 to 100 | CNC(=O)c1cc(C(=O)N[C@H]2C[C@@H]2C)cc2c1OCC2C1CCOCC1 (single isomer, unassigned) [Example 121, (R*)-N^7-methyl-N^5-((1S,2S)-2-methylcyclopropyl)-3-(tetrahydro-2H-pyran-4-yl)-2,3-dihydrobenzofuran-5,7-dicarboxamide] |
| 1 to 100 | CNC(=O)c1cc(C(=O)Nc2nccn2C)cc2c1OCC2c1ccccc1 (centres unmarked) [Example 118, N^7-methyl-N^5-(1-methyl-1H-imidazol-2-yl)-3-phenyl-2,3-dihydrobenzofuran-5,7-dicarboxamide] |
| 1 to 100 | CNC(=O)c1cc(C(=O)Nc2nnn(C)n2)cc2c1OC[C@H]2c1ccccc1 [Example 123, (S)-N^7-methyl-N^5-(2-methyl-2H-tetrazol-5-yl)-3-phenyl-2,3-dihydrobenzofuran-5,7-dicarboxamide] |

Second part, the compound before the results:

| SMILES | IC50 [µM] |
| --- | --- |
| CNC(=O)c1cc(C(=O)N[C@H]2[C@@H]3COC[C@@H]32)cc2c1OC[C@@H]2c1ccc(OCCN)cc1 (single isomer, unassigned) [Example 111, (R*)-3-(4-(2-aminoethoxy)phenyl)-N^5-((1R,5S,6r)-3-oxabicyclo[3.1.0]hexan-6-yl)-N^7-methyl-2,3-dihydrobenzofuran-5,7-dicarboxamide] | 1 to 100 |
| CNC(=O)c1cc(C(=O)NC2CC2)cc2c1OCC2C1CCOCC1 (centres unmarked) [Example 104, N^5-cyclopropyl-N^7-methyl-3-(tetrahydro-2H-pyran-4-yl)-2,3-dihydrobenzofuran-5,7-dicarboxamide] | 1 to 100 |
| CNC(=O)c1cc(C(=O)NCCn2cnnc2)cc2c1OCC2c1ccccc1 (centres unmarked) [Example 110, N^5-(2-(4H-1,2,4-triazol-4-yl)ethyl)-N^7-methyl-3-phenyl-2,3-dihydrobenzofuran-5,7-dicarboxamide] | 1 to 100 |

test system: BET family (BRD2, BRD3, BRD4 and BRDT) tandem bromodomain proteins; assay: Fluorescence Polarisation binding of Reference Compound X to mutant tandem BET proteins; design: species or system Human; settings: double residue (Tyr to Ala) mutant tandem domain proteins
Procedure: The competition of the compounds of formula (I) with Reference Compound X for binding to the BET family (BRD2, BRD3, BRD4 and BRDT) was assessed using protein truncates spanning both bromodomain 1 (BD1) and bromodomain 2 (BD2). In order to monitor differential binding to either BD1 or BD2, single residue mutations of key tyrosines to alanine were made in the acetyl lysine binding pockets. To validate this approach, a double residue mutant tandem domain protein was produced for each of the BET family members. Utilising a Fluorescence Polarisation approach, binding affinities for each of the single and double mutants for Reference Compound X were determined. […] The affinities of the single mutated bromdomain tandem proteins for Reference Compound X were equi-potent with the corresponding non-mutated BET protein. […] Final purification was completed by Superdex 200 prep grade size exclusion column. Purified protein was stored at −80° C. in 20 mM HEPES pH 7.5 and 100 mM NaCl. Protein identity was confirmed by peptide mass fingerprinting and predicted molecular weight confirmed by mass spectrometry.

| SMILES | reduction in Kd (affinity), double mutant tandem proteins versus non mutated, wild type tandem BET proteins [fold] |
| --- | --- |
| COc1ccc2c(c1)C(c1ccc(Cl)cc1)=N[C@@H](CC(=O)NCCCCCNC(=O)CCCCCC1(C)/C(=C/C=C/C=C/C3=[N+](CCCCS(=O)(=O)O)c4ccc(S(=O)(=O)O)cc4C3(C)C)N(CCCCS(=O)(=O)[O-])c3ccc(S(=O)(=O)O)cc31)c1nnc(C)n1-2 (some centres unmarked) [Reference Compound X] | > 1000 |

same assay, conditions: single mutated tandem proteins

| SMILES | affinities of the single mutated bromodomain tandem proteins versus the corresponding non-mutated BET protein |
| --- | --- |
| COc1ccc2c(c1)C(c1ccc(Cl)cc1)=N[C@@H](CC(=O)NCCCCCNC(=O)CCCCCC1(C)/C(=C/C=C/C=C/C3=[N+](CCCCS(=O)(=O)O)c4ccc(S(=O)(=O)O)cc4C3(C)C)N(CCCCS(=O)(=O)[O-])c3ccc(S(=O)(=O)O)cc31)c1nnc(C)n1-2 (some centres unmarked) [Reference Compound X] | equi-potent |
